Test results published in patent US7888338B2, “7-(2-cyclohexylidene-ethylidene)-spiro[4.5]decanes” (K.U. Leuven Research & Development, priority 2004, dated 2011).

Tests used:
[1] = biological target: T1, Human Vitamin D Binding Protein (hDBP) (Homo sapiens, UniProt P02774); experiment: Affinity for Human Vitamin D Binding Protein (hDBP), displacement of [3H]1α,25(OH)2D3; conditions: relative affinity from concentration displacing 50% of [3H]1α,25(OH)2D3, 1α,25(OH)2D3 assigned 100%, 4° C.
T1 sequence (P02774 17-474): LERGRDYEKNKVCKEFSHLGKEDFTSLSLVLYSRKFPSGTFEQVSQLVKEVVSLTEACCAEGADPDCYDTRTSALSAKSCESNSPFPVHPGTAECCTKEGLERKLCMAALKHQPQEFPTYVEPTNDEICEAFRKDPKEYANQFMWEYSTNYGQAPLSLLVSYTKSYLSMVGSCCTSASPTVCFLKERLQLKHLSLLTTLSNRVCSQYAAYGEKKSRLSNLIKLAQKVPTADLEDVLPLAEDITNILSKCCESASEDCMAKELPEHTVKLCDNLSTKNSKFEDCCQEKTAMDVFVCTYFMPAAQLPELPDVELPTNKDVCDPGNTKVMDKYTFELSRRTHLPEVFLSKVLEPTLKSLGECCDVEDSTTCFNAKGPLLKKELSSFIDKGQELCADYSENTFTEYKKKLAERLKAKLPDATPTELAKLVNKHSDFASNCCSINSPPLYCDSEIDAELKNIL
Protocol: The solution is incubated for 3 hours at 4° C. Final phase separation is obtained by adding 0.5 mL of cold destran-coated charcoal.

MCF-7 cells = experiment: Measurement of cell proliferation, breast carcinoma cells MCF-7, [3H]thymidine incorporation; format: cell-based; conditions: cell proliferation ([3H]thymidine incorporation), relative to control 1α,25(OH)2D3 = 100
Protocol: Selected compounds of the present invention are evaluated for their effect on cell proliferation. Malignant MCF-7 cells are cultured in DMEM nutrient mix F12 (HAM) medium which is supplemented with 10% heat inactivated FCS, glutamine (2 mM), penicillin (100 units/mL) and streptomycin (0.1 mg/mL). The cultures are maintained at 37° C. in an atmosphere of humidified air containing 5% CO2. The MCF-7 cells are seeded at approximately 5×10^3 cells/well in the DMEM modified medium in a 96-well microtiter plate. […] Finally, 1 μCi of [^3H]thymidine is added to each well and the cells are harvested after a further 4 hour incubation period. The cells are harvested with a Parckard Harvester and the cell count measured by a Packard Topcount System.

HL-60 cells = experiment: Promyelocytic leukemia cells (HL-60), differentiation markers (NBT reduction assay); format: cell-based; conditions: relative to control 1α,25(OH)2D3 = 100
Protocol: Selected compounds of the present invention are evaluated for their effect on cell proliferation. Falcon tissue chambers are seeded with 4×10^4 cells/cm^2 of HL-60 cells using RPMI 1640 medium supplemented with 20% FCS and gentamycin (50 μg/mL) in a final cell volume of 5 mL. The cultures are maintained at 37° C. in an atmosphere of humidified air containing 5% CO2. […] After 4 days, the dishes are shaken to lose adherent cells. The cells are then washed twice in RPMI medium, counted, and then assayed for differentiation markers (NBT reduction assay). Superoxide production is measured as NBT reducing activity as described by Ostrem. V. K et al. Proc Natl Acad Sci USA,. 1987 84: 2610-2614. HL-60 cells at 1×10^6/mL are mixed with an equal volume of freshly prepared solution of phorbol 12-myristate 13-acetate (200 ng/mL) and NBT ([…]) and incubated for 30 minutes at 37° C. The percentage of cells containing black formazan deposits is determined using a hemacytometer.

Vitamin D Receptor (VDR) = biological target: T2, Vitamin D Receptor (VDR) (Sus scrofa, UniProt A3RGC1); conditions: relative affinity from concentration displacing 50% of [3H]1α,25(OH)2D3; 1α,25(OH)2D3 assigned 100%; 4° C., 20 hours
T2 sequence (A3RGC1 1-427): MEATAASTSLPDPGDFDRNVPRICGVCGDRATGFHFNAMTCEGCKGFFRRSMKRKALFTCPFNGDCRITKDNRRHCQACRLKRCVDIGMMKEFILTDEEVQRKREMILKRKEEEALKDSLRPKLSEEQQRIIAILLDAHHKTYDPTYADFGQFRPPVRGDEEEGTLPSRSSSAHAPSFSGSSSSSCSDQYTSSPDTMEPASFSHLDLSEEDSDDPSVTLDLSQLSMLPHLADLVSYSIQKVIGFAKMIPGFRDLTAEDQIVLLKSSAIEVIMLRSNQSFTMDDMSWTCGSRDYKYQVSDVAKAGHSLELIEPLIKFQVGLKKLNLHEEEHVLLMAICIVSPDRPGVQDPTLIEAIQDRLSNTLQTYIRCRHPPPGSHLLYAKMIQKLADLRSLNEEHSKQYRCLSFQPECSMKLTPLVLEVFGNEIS

[2] = In vivo determination of calcium levels (serum calcium, femur calcium); set-up: species or system NMRI mice; conditions: for Femur Ca: NMRI mice, IP daily for 7 consecutive days
Text: . Table VII presents the serum and femur calcium levels in mice after intraperitoneal injections after 7 consecutive days.

Structure (SMILES) | hDBP binding % [1] | MCF-7 (MCF-7 cells) | HL-60 (HL-60 cells) | VDR binding % (Vitamin D Receptor (VDR)) | Femur Ca ([2]; 0.1 μg/kg/d) | Femur Ca ([2]; 0.2 μg/kg/d) | Femur Ca ([2]; 0.4 μg/kg/d) | estimated serum calcium ([2]; as compared with 1α,25(OH)2D3 (control assigned 100%), mice, IP daily, 7 consecutive days) | less calcemic than the control ([2]; mouse, in vivo) | estimated serum calcium ([2]; mouse, in vivo, ip)
CC(C)(O)CCC[C@@H]1CC[C@]2(CCC/C(=C/C=C3C[C@@H](O)C[C@H](O)C3)C2)C1 [(1R,3R)-5-{(Z)-(2R,5R))-2-[2-(4-hydroxy-4-methylpentyl)-spiro[4.5]dec-7-ylidene]-ethylidene}-cyclohexane-1,3-diol] | 3% | 75 | 8 | 0.8% |  |  |  |  |  | 
CC(C)(O)CCC[C@H]1CC[C@]2(CCC/C(=C\C=C3C[C@@H](O)C[C@H](O)C3)C2)C1 [(1R,3R)-5-{2-[(2S,5R)-2-(4-Hydroxy-4-methyl-pentyl)-spiro[4.] [(1R,3R)-5-{2-[(2S,5R)-2-(4-hydroxy-4-methyl-pentyl)-spiro[4.5]dec-(7E)-ylidene]-ethylidene}-cyclohexane-1,3-diol] | 3% | 50 | 10 | 0.8% |  |  |  |  |  | 
CC(C)(O)CCC[C@H]1CC[C@@]2(CCC/C(=C\C=C3C[C@@H](O)C[C@H](O)C3)C2)C1 [(1R,3R)-5-{2-[(2S,5S)-2-(4-Hydroxy-4-methyl-pentyl)-spiro[4.5]dec-(7E)-ylidene]-ethylidene}-cyclo-hexane-1,3-diol] | 0% | 20 | 8 | 0.7% |  |  |  |  |  | 
CC(C)(O)CCCC1CCC2(CCC/C(=C/C=C3C[C@@H](O)C[C@H](O)C3)C2)C1 (stereo in doubt) [(1R,3R)-5-{2-[(2S, 5R)-2-(4-hydroxy-4-methylpentyl)-spiro[4.5]dec-(7Z)-ylidene]-ethylidene}-cyclo-hexane-1,3-diol] | 3% | 8 | 0.9 | 0.4% |  |  |  |  |  | 
CC(C)(O)CCC[C@H]1CC[C@@]2(CCC/C(=C/C=C3C[C@@H](O)C[C@H](O)C3)C2)C1 [(1R,3R)-5-{2-[(2S,5S)-2-(4-Hydroxy-4-methyl-pentyl)-spiro[4.5]dec-(7Z)-ylidene]-ethylidene}-cyclo-hexane-1,3-diol] | 0% | 3 | 0.5 | 0% |  |  |  |  |  | 
C=C1/C(=C\C=C2/CCC[C@]3(C)[C@@H]([C@H](C)CCCC(C)(C)O)CC[C@@H]23)C[C@@H](O)C[C@@H]1O [1α,25(OH)2D3, 1α,25-dihydroxyvitamin D3] |  |  | 100 |  | 10.9 mg | 10.3 mg | 8.9 mg | 100% |  | 
CC(C)(O)CCC[C@H]1CC[C@]2(CCC/C(=C/C=C3C[C@@H](O)C[C@H](O)C3)C2)C1 [(1R,3R)-5-{(Z)-(2R,5S))-2-[2-(4-hydroxy-4-methylpentyl)-spiro[4.5]dec-7-ylidene]-ethylidene}-cyclohexane-1,3-diol] | 0% | 4 | <1 | 0% |  |  |  |  |  | 
CC(C)(O)CCC[C@@H]1CC[C@]2(CCC/C(=C\C=C3C[C@@H](O)C[C@H](O)C3)C2)C1 [(1R,3R)-5-{(E)-(2R,5R))-2-[2-(4-hydroxy-4-methylpentyl)-spiro[4.5]dec-7-ylidene]-ethylidene}-cyclohexane-1,3-diol] | 3% | 450 | 200 | 10% |  |  |  |  | approximately 200 times | 0.5%
CC(C)(O)CCC[C@H]1CC[C@]2(CCC/C(=C\C=C3C[C@@H](O)C[C@H](O)C3)C2)C1 [(1R,3R)-5-{2-[(2R,5S)-2-(4-Hydroxy-4-methyl-pentyl)-spiro[4.] [(1R,3R)-5-{(E)-(2R,5S))-2-[2-(4-hydroxy-4-methylpentyl)-spiro[4.5]dec-7-ylidene]-ethylidene}-cyclohexane-1,3-diol] | 0% | 9 | 4 | 0.4% |  |  |  |  |  | 
